Patent publication US20160175328A1, “COMPOSITIONS AND TREATMENTS OF HEART FAILURE IN NON-HUMAN MAMMAL ANIMALS” (CEVA SANTE ANIMALE SA, priority 2008, published 2016)
Entries after “also recorded” stand apart in the source; their conditions may differ.

How the values were obtained:
[1] = test system: dogs in hyperaldosteronemia; test: Model for assessing the anti-aldosterone activity (urinary Na/K after aldosterone injection); format: in vivo, dog; conditions: for Urine flow rate: aldosterone treatment or aldosterone with spironolactone; for Urine Volume / log (Na × 10/K) / K / Na: N 15; for K / Na: urine; for reversal of the effect of aldosterone on the log ([Na+]urinary×10/[K+]urinary): first 6 hours and 12 hours after dosage
Description: They have been tattooed in advance for easy identification and situated in stainless steel individual boxes.
A preliminary study was performed in order to determining the ED80 value for the natriuretic effect of aldosterone on its own.
The dogs described above were allocated to different treatment groups (A, B, C, D, and E) and a rest period was left between treatments.
A negative control group A only received the pharmaceutical excipient. The positive control group B only received 3 μg/kg of aldosterone. […] 200 g food was then given immediately after treatment.
The samples were frozen and kept in the dark at approx. −80° C. […] Also, the urine was collected during the time periods ranging from T0-T6h; T6h-T12h and T12h-T24h.
After calibration and count, the quantity of aldosterone present in the sample was thus determined once counted.
The sodium and potassium contents in urines were determined using […]. […] According to this method 500 μL plasma were mixed with ethyl acetate (80/20, V/V) as solvents. […] The compounds and the internal standard (i.e. methyl-testosterone) were separated on a Kromasil C18 column.
A statistical analysis was performed with the STATGRAPHICS Plus version 4.1 software (Manugestics, Inc., Rockville, Md., U.S.A.). The results were presented such as averages±SD; p<0.05 is considered as significant.

[2] = test system: dogs affected by heart failure; test: Clinical studies of spironolactone plus ACEI in dogs affected by heart failure; format: in vivo, dog; conditions: for reduction of the risk of mortality: oral spironolactone 2 mg/kg/day and a ACEI vs placebo and a ACEI; for Survival probability (absence of mortality): over 15 months (14-15 months), Placebo + ACEI 74%
Description: Multicentre, randomised, double-blind placebo-controlled clinical studies were conducted. An example of study concerned 221 dogs, the diagnosis of heart failure relying on persisting symptoms of cardiomegaly or cardiomyopathy after a first ACEI treatment. […] The 112-dog placebo group received a placebo in combination with an ACEI (for instance benazepril chlorhydrate in a dose of 0.25 mg/kg/day).
For gauging the effects of the treatment, both groups were examined five times, i.e., on the first day of treatment (D1), then on the 84th day (D84), […], 252nd day (D252) and 336th day (D336). This examination consisted of a clinical examination of the dogs, urine and blood analyses, and a radiograph. Moreover, an echocardiograph was taken on days D1, D168 and D336.
Also, the effects of the treatment were assessed on the symptoms such as cough and mobility, as well as on the prevention of symptoms such as dyspnoea, pulmonary edema, and tolerance to effort.

[3] = test system: patients affected by severe heart failure; conditions: 25 mg spironolactone with ACEI, loop diuretics, sometimes digoxin; 284 dead of 822; placebo group 46%; cited from earlier work
[4] = Plasmatic potassium (kalemia) measured during the clinical studies; format: in vivo, dog; conditions: for Low and transient hyperkalemia (5.9 to 6.4 mmol/L), cases: group on spironolactone
Description: The plasmatic potassium concentrations (mmol/L) were measured during the treatments. […] Only sporadic case of low or moderate hyperkalemia could be observed and these events were transient. Indeed, these hyperkalemia events could only be observed a couple of times during examinations, and some of them were present on day D1, before the beginning of the treatment.

[5] = Pharmacokinetic study with 22-14C spironolactone, monkey; format: in vivo; conditions: monkeys, after 4 hour oral administration of spironolactone
[6] = Pharmacokinetic study with 22-14C spironolactone, dog; format: in vivo; conditions: dogs, after 4 hour oral administration of spironolactone
[7] = Pharmacokinetic study with 22-14C spironolactone, rat; format: in vivo; conditions: rats, after 4 hour oral administration of spironolactone
[8] = group B, dosage 0, aldosterone 3 μg/kg
[9] = group C, spironolactone dosage 0.8, aldosterone 3 μg/kg
[10] = group D, spironolactone dosage 2, aldosterone 3 μg/kg
[11] = group E, spironolactone dosage 8, aldosterone 3 μg/kg

SMILES: C[C@]12CCC(=O)C=C1CC[C@@H]1[C@@H]2[C@@H](O)C[C@]2(C=O)[C@@H](C(=O)CO)CC[C@@H]12 [Aldosterone]
- increase of the urinary levels of K ([1]; aldosterone on its own): 25%
- reduction of the elimination of Na ([1]; aldosterone on its own): approx. 65%
- Urine flow rate [1]: not significantly modified
- Urine Volume [1, 8]: 115 ± 109 mL
- log (Na × 10/K) [1, 8]: 0.70 ± 0.22
- K [1, 8]: 116.6 mmol/L
- Na [1, 8]: 56.3 ± 29.9 mmol/L

SMILES: CC(=O)S[C@@H]1CC2=CC(=O)CC[C@]2(C)[C@H]2CC[C@@]3(C)[C@@H](CC[C@@]34CCC(=O)O4)[C@H]12 [Spironolactone, 7α-acetylthio-3-oxo-17α-pregn-4-ene-21,17-carbolactone]
- morbidity-mortality rates ([2]; 14-15 month, spironolactone 2 mg/kg/day + ACEI, against 25%): 11%
- mortality rates ([2]; after 14-15 months, spironolactone 2 mg/kg/day + ACEI, reference group 20%): 6%
- survival probabilities ([2]; dogs treated as of stage I of heart failure, approx. 3.5 years, spironolactone 2 mg/kg/day + ACEI, against 53%): 100%
- survival probabilities ([2]; duration of 3 years, spironolactone 2 mg/kg/day + ACEI, reference group 64%): 80%
- clinical symptoms (cough, mobility, dyspnoea, pulmonary edema, tolerance to effort, syncopes) ([2]; group of dogs on spironolactone vs control group): improved symptoms such as cough and mobility were observed
- reduction of the risk of mortality ([2]; over 3 years): 59%
- reduction of the risk of mortality ([2]; over 14-15 months): 65%
- Survival probability (absence of mortality) ([2]; spironolactone 2 mg/kg/day + ACEI, 109 dogs): 91%
- Survival probability (absence of mortality) ([2]; spironolactone 2 mg/kg/day + ACEI, 109 dogs, listed as spironolactone): 91%
- “survival” probability (absence of morbi-mortality) ([2]; over 15 months, spironolactone 2 mg/kg/day + ACEI, 109 dogs, Placebo + ACEI 67%): 84%
- ED50 ([1]; Canis lupus familiaris, read-out: ED50 (quantity of spironolactone to reach 50% of the maximum response), sigmoid Emax model, log ratio 0 to 6 hours): 1.09 mg/kg
- Urine flow rate [1]: not significantly modified
- Emax-E0 ([1]; corresponded to 100% amplitude, E0 (control group) 0.527): 0.5625
- Urine Volume [1, 9]: 148 ± 154 mL
- log (Na × 10/K) [1, 9]: 0.85 ± 0.24
- Urine Volume [1, 10]: 162 ± 103 mL
- log (Na × 10/K) [1, 10]: 1.02 ± 0.21
- Urine Volume [1, 11]: 190 ± 195 mL
- log (Na × 10/K) [1, 11]: 1.14 ± 0.18
- elimination (excretion) of Na ([1]; higher dose of spironolactone, 8 mg/kg): other increases in the elimination of Na were observed; also recorded: Further increases in Na excretion
- Emax (maximum possible effect of spironolactone) ([1]; log ([Na+]urinary×10/[K+]urinary), Emax model): 1.089
- ED50 (quantity of spironolactone to reach 50% of the maximum response) ([1]; sigmoid Emax model, log ratio 0 to 6 hours): 1.08 ± 0.28 mg/kg
- natriuretic responses ([1]; spironolactone 0.8 mg/kg): no effect on certain dogs
- natriuretic responses ([1]; spironolactone 2 mg/kg): completely reversed
- reversal of the effect of aldosterone on the log ([Na+]urinary×10/[K+]urinary) ([1]; spironolactone 2 mg/kg): complete reversal
- reversal of the effect of aldosterone on the log ([Na+]urinary×10/[K+]urinary) ([1]; spironolactone 8 mg/kg): complete reversal
- Potassium excretion ([1]; spironolactone 0.8, 2 and 8 mg/kg with aldosterone): spared up to 2 mg per kg but not after that
- E(2mg/kg)−E0 ([1]; spironolactone approx. 2 mg/kg): 0.4933
- K [1, 9]: 91.8 mmol/L
- Na [1, 9]: 67.6 ± 49.3 mmol/L
- K [1, 10]: 74.2 mmol/L
- Na [1, 10]: 74.9 ± 40.2 mmol/L
- K [1, 11]: 88.9 mmol/L
- Na [1, 11]: 111.1 ± 67.9 mmol/L
- dead (mortality) in the spironolactone group [3]: 35%
- Low and transient hyperkalemia (5.9 to 6.4 mmol/L), cases ([4]; 2-month clinical study (4 analyses)): 3
- Low and transient hyperkalemia (5.9 to 6.4 mmol/L), cases ([4]; 3-month clinical study (6 analyses)): 5
- Low and transient hyperkalemia (5.9 to 6.4 mmol/L), cases ([4]; 12-month clinical study (5 analyses)): 3
- variation in kalemia ([4]; daily dose of spironolactone of 2 mg/kg/day, dogs): did not cause any variation in kalemia or only low transient variations in kalemia
- progression of average plasmatic potassium (kalemia), FIG. 9 ([4]; spironolactone 2 mg/kg/day and ACEI vs placebo and ACEI): stable kalemia
- plasma radioactivity percentage [5]: 33%
- plasma radioactivity percentage [6]: 76%
- plasma radioactivity percentage [7]: 66%
